What was measured:
rat brain SERT = rat brain SERT (Rattus norvegicus, UniProt P31652); experiment: Regional brain uptake of [123I]ZIENT in rats with blocking agents
[1] = Tissue uptake of [123I]ZIENT in rats; details: rat
SERT sites = SERT sites (Macaca mulatta, UniProt Q9MYX0); experiment: SPECT imaging and fluvoxamine chase study in rhesus monkey; details: for Displacement of tracer by fluvoxamine (SPECT): fluvoxamine 5 mg i.v., midbrain / brainstem; for Brain uptake by SPECT: midbrain by 54 min, brainstem at 80-110 min
Sequence of SERT sites (Q9MYX0 whole entry): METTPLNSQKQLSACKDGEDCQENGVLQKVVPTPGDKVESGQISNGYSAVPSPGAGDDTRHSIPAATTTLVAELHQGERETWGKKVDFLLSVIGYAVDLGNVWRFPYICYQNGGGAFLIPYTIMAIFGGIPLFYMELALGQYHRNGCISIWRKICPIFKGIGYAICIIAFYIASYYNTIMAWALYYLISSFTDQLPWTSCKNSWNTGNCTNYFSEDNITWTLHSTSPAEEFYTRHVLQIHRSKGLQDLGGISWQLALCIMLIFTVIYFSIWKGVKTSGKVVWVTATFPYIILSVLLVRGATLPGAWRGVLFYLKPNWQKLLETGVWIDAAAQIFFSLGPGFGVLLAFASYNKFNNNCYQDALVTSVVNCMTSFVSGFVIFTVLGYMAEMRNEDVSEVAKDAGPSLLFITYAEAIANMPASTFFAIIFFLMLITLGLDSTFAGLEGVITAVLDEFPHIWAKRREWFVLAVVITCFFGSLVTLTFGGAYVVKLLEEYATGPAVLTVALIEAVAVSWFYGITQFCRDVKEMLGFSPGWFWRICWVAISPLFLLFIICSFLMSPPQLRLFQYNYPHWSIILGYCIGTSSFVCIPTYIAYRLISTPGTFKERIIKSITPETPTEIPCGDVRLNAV
Description: SPECT images were reconstructed as transaxial slices (3.2 mm) and attenuation corrected.

SERT = experiment: SPECT imaging in baboon; format: in vivo; details: anesthetized baboon, 300-360 min
Experimental: FIG. 7 is a graph showing time activity curves of [^123I]ZIENT in a baboon.
The baboon was injected with 10 mCi of [^123I]ZIENT and serial images (128×128×64 matrix: pixel size=1.67×1.67 mm, slice, thickness=1.67 mm, voxel volume=4.66 mm^3) were acquired at 159 keV, in step and shoot mode at 10 min each for a total of 360 to 390 min and 32 to 35 acquisitions per experiment. Images were reconstructed using a ramp and a Butterworth filter (cutoff=0.65 cm-power factor=10). To identify brain regions, MRI scans of 1.5 mm contiguous slices were obtained with a 1.5 Tesla GE Signa device. Axial images were acquired using a spoiled GRASS (gradient recall acquisition in the steady state) sequence with TR=25 ms, TE=5 ms, NEX=2, matrix=256×192, field of view=16 cm. […] The uptake ratio of brainstem/cerebellum was 3.0:1 at 300-360 min.

[2] = 5 mg/kg i.v. 15 min prior, 60 min
[3] = 60 min, Fluvoxamine 5 mg/kg i.v. 15 min prior
[4] = 60 min, GBR 12909 5 mg/kg i.v. 15 min prior
[5] = 60 min after i.v., listed as [^123]ZIENT

Sequence of rat brain SERT (P31652 whole entry): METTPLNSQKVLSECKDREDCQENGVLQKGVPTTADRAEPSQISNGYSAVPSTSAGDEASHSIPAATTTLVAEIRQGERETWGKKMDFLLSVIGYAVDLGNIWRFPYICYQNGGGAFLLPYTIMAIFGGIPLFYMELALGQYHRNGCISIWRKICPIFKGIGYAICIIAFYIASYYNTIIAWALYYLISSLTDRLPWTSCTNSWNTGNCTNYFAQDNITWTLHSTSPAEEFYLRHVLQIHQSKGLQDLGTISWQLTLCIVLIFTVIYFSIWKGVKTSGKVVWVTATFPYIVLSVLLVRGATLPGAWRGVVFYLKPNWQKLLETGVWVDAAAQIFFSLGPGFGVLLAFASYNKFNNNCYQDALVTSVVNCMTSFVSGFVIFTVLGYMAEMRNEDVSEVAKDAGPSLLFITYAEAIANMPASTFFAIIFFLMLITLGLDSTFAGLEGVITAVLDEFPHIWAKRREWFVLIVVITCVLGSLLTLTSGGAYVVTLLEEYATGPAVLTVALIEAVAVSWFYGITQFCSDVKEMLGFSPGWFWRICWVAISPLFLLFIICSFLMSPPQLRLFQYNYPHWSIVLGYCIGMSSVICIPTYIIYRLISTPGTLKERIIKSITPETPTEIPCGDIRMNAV

In the case of `COC(=O)C1C2CCC(CC1c1ccc(C=C[123I])cc1)N2` (stereo not shown) [[^123I]ZIENT], the “Effect of GBR 12909 (DAT ligand) on tracer uptake in striatum” value (rat brain SERT; [2]) is reported as “did not significantly block”, the “Effect of NET blocking agent (reboxetine) on regional brain uptake of tracer” value (rat brain SERT; [2]) is reported as “little effect” and the “Effect of fluvoxamine (SERT ligand) on tracer uptake in hypothalamus and striatum” value (rat brain SERT; [2]) is reported as “significantly blocked”. For the same molecule, the “Hypothal/(CB) ratio” value (rat brain SERT; [3]) was 1.3, the “Regional uptake, Brain” value (rat brain SERT; [3]) was 0.27 (0.24 0-0.30) % dose/g and the “Regional uptake, Cerebellum” value (rat brain SERT; [3]) was 0.18 (0.16-0.20) % dose/g. The “Regional uptake, Frontal Cortex” value (rat brain SERT; [3]) was 0.26 (0.23-0.29) % dose/g, the “Regional uptake, Hypothalamus” value (rat brain SERT; [3]) was 0.23 (0.18-0.27) % dose/g and the “Regional uptake, Striatum” value (rat brain SERT; [3]) was 0.28 (0.24-0.32) % dose/g. The “Striatum/(CB) ratio” value (rat brain SERT; [3]) was 1.6, the “Hypothal/(CB) ratio” value (rat brain SERT; [4]) was 1.8 and the “Regional uptake, Brain” value (rat brain SERT; [4]) was 0.39 (0.37-0.42) % dose/g. For the same molecule, the “Regional uptake, Cerebellum” value (rat brain SERT; [4]) was 0.21 (0.18-0.26) % dose/g, the “Regional uptake, Frontal Cortex” value (rat brain SERT; [4]) was 0.43 (0.38-0.47) % dose/g and the “Regional uptake, Hypothalamus” value (rat brain SERT; [4]) was 0.38 (0.34-0.41) % dose/g. For the same molecule, the “Regional uptake, Striatum” value (rat brain SERT; [4]) was 0.40 (0.37-0.42) % dose/g, the “Striatum/(CB) ratio” value (rat brain SERT; [4]) was 1.9 and the “Hypothal/(CB) ratio” value (rat brain SERT; 60 min after i.v.) was 2.7. The “Regional uptake, Brain” value (rat brain SERT; 60 min after i.v.) was 0.61 (0.56-0.63) % dose/g, the “Regional uptake, Cerebellum” value (rat brain SERT; 60 min after i.v.) was 0.29 (0.28-0.31) % dose/g and the “Regional uptake, Frontal Cortex” value (rat brain SERT; 60 min after i.v.) was 0.70 (0.65-0.78) % dose/g. The “Regional uptake, Hypothalamus” value (rat brain SERT; 60 min after i.v.) was 0.7 % dose/g, the “Regional uptake, Striatum” value (rat brain SERT; 60 min after i.v.) was 0.60 (0.54-0.63) % dose/g and the “Striatum/(CB) ratio” value (rat brain SERT; 60 min after i.v.) was 2.1. The “Hypothal/(CB) ratio” value (rat brain SERT; 60 min after i.v., listed as [^123I] ZIENT) was 3, the “Hypothal/(CB) ratio” value (rat brain SERT; [5]) was 2.7 and the “Regional uptake, Hypothalamus” value (rat brain SERT; [5]) was 0.77 (0.69-0.83) % dose/g. The “Hypothal/(CB) ratio” value (rat brain SERT; 120 min after i.v.) was 4.4, the “Regional uptake, Brain” value (rat brain SERT; 120 min after i.v.) was 0.40 (0.32-0.50) % dose/g and the “Regional uptake, Cerebellum” value (rat brain SERT; 120 min after i.v.) was 0.12 (0.11-0.28) % dose/g. The “Regional uptake, Frontal Cortex” value (rat brain SERT; 120 min after i.v.) was 0.48 (0.42-0.53) % dose/g, the “Regional uptake, Hypothalamus” value (rat brain SERT; 120 min after i.v.) was 0.53 (0.44-0.60) % dose/g and the “Regional uptake, Striatum” value (rat brain SERT; 120 min after i.v.) was 0.46 (0.37-0.55) % dose/g. For the same molecule, the “Striatum/(CB) ratio” value (rat brain SERT; 120 min after i.v.) was 3.8, the “Hypothal/(CB) ratio” value (rat brain SERT; 120 min after i.v., listed as [^123I] ZIENT) was 5 and the “Hypothal/(CB) ratio” value (rat brain SERT; 120 min after i.v., listed as [^123]ZIENT) was 4.4. For the same molecule, the “Prefrontal cortex to cerebellum ratio” value (rat brain SERT; 120 min post injection) was 2.9, the “Clearance from the hypothalamus” value (rat brain SERT; at 120 min compared to 60 min post injection) was 30% and the “Tissue uptake, Blood” value ([1]; 5 min after i.v.) was 0.64 (0.52-0.86) percent dose per gram. For the same molecule, the “Tissue uptake, Heart” value ([1]; 5 min after i.v.) was 2.41 (2.36-2.47) percent dose per gram, the “Tissue uptake, Kidney” value ([1]; 5 min after i.v.) was 2.35 (2.16-2.67) percent dose per gram and the “Tissue uptake, Liver” value ([1]; 5 min after i.v.) was 0.99 (0.73-1.33) percent dose per gram. For the same molecule, the “Tissue uptake, Lung” value ([1]; 5 min after i.v.) was 9.71 (7.9-11.8) percent dose per gram, the “Tissue uptake, Muscle” value ([1]; 5 min after i.v.) was 0.30 (0.15-0.44) percent dose per gram and the “Tissue uptake, Spleen” value ([1]; 5 min after i.v.) was 3.79 (3.28-4.67) percent dose per gram. The “Tissue uptake, Testis” value ([1]; 5 min after i.v.) was 0.22 (0.19-0.27) percent dose per gram, the “Tissue uptake, Thyroid” value ([1]; 5 min after i.v.) was 0.11 (0.08-0.12) percent dose per gram and the “Tissue uptake, Blood” value ([1]; 30 min after i.v.) was 0.46 (0.43-0.49) percent dose per gram. The “Tissue uptake, Heart” value ([1]; 30 min after i.v.) was 0.52 (0.48-0.55) percent dose per gram, the “Tissue uptake, Kidney” value ([1]; 30 min after i.v.) was 0.66 (0.64-0.70) percent dose per gram and the “Tissue uptake, Liver” value ([1]; 30 min after i.v.) was 0.43 (0.38-0.51) percent dose per gram. The “Tissue uptake, Lung” value ([1]; 30 min after i.v.) was 1.48 (1.35-1.66) percent dose per gram, the “Tissue uptake, Muscle” value ([1]; 30 min after i.v.) was 0.29 (0.25-0.32) percent dose per gram and the “Tissue uptake, Spleen” value ([1]; 30 min after i.v.) was 1.24 (1.03-1.50) percent dose per gram. The “Tissue uptake, Testis” value ([1]; 30 min after i.v.) was 0.36 (0.30-0.47) percent dose per gram, the “Tissue uptake, Thyroid” value ([1]; 30 min after i.v.) was 0.23 (0.19-0.29) percent dose per gram and the “Tissue uptake, Blood” value ([1]; 60 min after i.v.) was 0.39 (0.23-0.42) percent dose per gram. The “Tissue uptake, Heart” value ([1]; 60 min after i.v.) was 0.36 (0.15-0.40) percent dose per gram, the “Tissue uptake, Kidney” value ([1]; 60 min after i.v.) was 0.44 (0.29-0.50) percent dose per gram and the “Tissue uptake, Liver” value ([1]; 60 min after i.v.) was 0.28 (0.11-0.30) percent dose per gram. For the same molecule, the “Tissue uptake, Lung” value ([1]; 60 min after i.v.) was 1.27 (0.62-1.44) percent dose per gram, the “Tissue uptake, Muscle” value ([1]; 60 min after i.v.) was 0.20 (0.11-0.22) percent dose per gram and the “Tissue uptake, Spleen” value ([1]; 60 min after i.v.) was 0.82 (0.50-0.94) percent dose per gram. For the same molecule, the “Tissue uptake, Testis” value ([1]; 60 min after i.v.) was 0.29 (0.26-0.34) percent dose per gram, the “Tissue uptake, Thyroid” value ([1]; 60 min after i.v.) was 0.33 (0.17-0.37) percent dose per gram and the “Tissue uptake, Blood” value ([1]; 120 min after i.v.) was 0.33 (0.31-0.36) percent dose per gram. For the same molecule, the “Tissue uptake, Heart” value ([1]; 120 min after i.v.) was 0.20 (0.18-0.24) percent dose per gram, the “Tissue uptake, Kidney” value ([1]; 120 min after i.v.) was 0.32 (0.29-0.35) percent dose per gram and the “Tissue uptake, Liver” value ([1]; 120 min after i.v.) was 0.29 (0.23-0.41) percent dose per gram. The “Tissue uptake, Lung” value ([1]; 120 min after i.v.) was 0.72 (0.61-0.78) percent dose per gram, the “Tissue uptake, Muscle” value ([1]; 120 min after i.v.) was 0.16 (0.14-0.18) percent dose per gram and the “Tissue uptake, Spleen” value ([1]; 120 min after i.v.) was 0.51 (0.44-0.55) percent dose per gram. The “Tissue uptake, Testis” value ([1]; 120 min after i.v.) was 0.30 (0.26-0.33) percent dose per gram, the “Tissue uptake, Thyroid” value ([1]; 120 min after i.v.) was 1.61 (0.82-2.31) percent dose per gram and the “Displacement of tracer by fluvoxamine (SPECT)” value (SERT sites) was “significant reduction of activity”. The “Displacement of tracer by fluvoxamine (SPECT)” value (SERT sites; listed as [^123I] ZIENT) was “significantly displaced”, the “Brain uptake by SPECT” value (SERT sites) was “regions of highest uptake” and the “Brain uptake by SPECT” value (SERT sites; listed as [^123I] ZIENT) was “high”. The “Uptake ratio of brainstem/cerebellum” value (SERT) was 3.0.

Source: patent publication US6843979B2, “4-haloethenylphenyl tropane:serotonin transporter imaging agents” (Emory University, priority 1999, dated 2005)
